{"source": "patent US10955409B2", "about": "“Method for the identification of sensory neuron subtypes in ex vivo preparations” (AnaBios Corporation, priority 2017, dated 2021)", "test_system": "Aδ- and C-type neurons (human DRG neurons)", "experiment": "Electric field stimulation (EFS) live cell calcium imaging of human DRG neurons", "assay_type": "cell-based", "conditions": "high voltage 15V/cm supra-threshold stimulation", "experimental": "DRGs from the first thoracic vertebra (T1) through the first sacral vertebra (S1) were used in the present study. Human DRG neurons where isolated from organ donors for which full legal and ethical consent had been obtained. The DRGs were stripped of connective tissue and enzymatically digested at 37° C. for 2 h using AnaBios' proprietary enzyme mixture. Samples were then centrifuged for 2 min at 200×g, supernatant was gently removed, and tissue was washed 4 times, followed by resuspension in DMEM/F12 (Lonza) containing 1% horse serum (Thermo Fisher Scientific). Ganglia were mechanically dissociated by gentle trituration through the fire-polished tip of a sterile glass Pasteur pipette. […] Cells were maintained in culture at 37° C. with 5% CO2 in DMEM/F12 supplemented with 10% horse serum (Thermo Fisher Scientific), 2 mM glutamine, 25 ng/mL hNGF (Cell Signaling Technology, Danvers, Mass.), 25 ng/mL GDNF (Peprotech), and penicillin/streptomycin (Thermo Fisher Scientific). Half of the culture media was replaced with fresh media every 3 days.\nCells were loaded with 3 M Fluo-8-AM (AAT Bioquest) containing 0.1% Pluronic F-127 (Sigma) for 20 min. at room temperature. Extracellular solution contained in (mM): 145 NaCl, 3 KCl, 2 CaCl2), 1 MgCl2, 10 HEPES, 10 glucose adjusted to pH 7.4 with NaOH. […]", "data": [{"compound": "CCN(CC)CC(=O)Nc1c(C)cccc1C", "note": "[lidocaine]", "values": [{"measurement": "sensitivity of the maximal response to EFS to lidocaine", "value": "exhibited sensitivity"}]}]}
